Results: paper PMC9569593, “Measurement of Hepatic CYP3A4 and 2D6 Activity Using Radioiodine-Labeled O-Desmethylvenlafaxine” (International Journal of Molecular Sciences, 2022)
Where two headings read alike, the source gives them in different places.

Tests used:
[1] = for Biological distribution, Blood / Biological distribution, Brain / Biological distribution, Gallbladder / Biological distribution, Heart / Biological distribution, Kidney / Biological distribution, Large intestines / Biological distribution, Liver / Biological distribution, Lung / Biological distribution, Pancreas / Biological distribution, Small intestines / Biological distribution, Spleen / Biological distribution, Stomach / Biological distribution, Thyroid / Biological distribution, Urine: control normal mice, i.v.
Experimental: For biological distribution in normal mice, ^125I-ODV was prepared to a radioactivity concentration of 185 kBq/mL by adding saline. A total of 20 mice fasted for 6 hr were administered ^125I-ODV via the tail vein (18.5 kBq/100 µL/mouse). After 5, 15, 30, and 60 min, normal mice were euthanized under isoflurane anesthesia (n = 4), and the following tissues were collected: blood, brain, heart, lung, thyroid, gallbladder, liver, spleen, pancreas, stomach, small intestines, large intestines, and kidney. Tissues were weighed, and radioactivity was quantified using a γ-ray counter to calculate the %ID or percent injected dose per gram of tissue (%ID/g).

[2] = up to seven days at 4 °C
Experimental: The stability of ^125I-ODV was analyzed by TLC. The elution of ^125I-ODVwas spotted onto a silica gel TLC plate 60 F254 (Merck, Darmstadt, Germany). The TLC plate and the TLC spots were developed using methanol/acetate at a ratio of 100:1. After development and complete drying, the TLC plates were cut into 21 fractions, and the radiography associated with each fraction was quantified using a γ-ray counter (AccuFLEXγ 7000, Aloka, Tokyo, Japan). The fractional ratios of ^125I^− and ^125I-ODV were calculated by dividing the radioactive counts for each fraction by the total radioactivity count.

CYP = settings: for fraction of 125I-ODV / peak of 125I-ODV metabolite: NADPH [+]
Experimental: Animal studies were approved by the Animal Care Committee at Kanazawa University (AP-173851) and were conducted in accordance with international standards for animal welfare and institutional guidelines. For preparation of the pooled mouse liver homogenates (MLH), three six-week-old ddY mice (Japan SLC, Tokyo, Japan) were euthanized under anesthesia with isoflurane, and the removed livers were weighed. After adding Krebs–Ringer phosphate buffer (pH 7.4), the pooled livers were homogenized with an ultrasonic homogenizer (SONIFIER250, Branson, MO, USA), and the protein content was measured according to the bicinchoninic acid method. The pooled MLH was stored at −80 °C.
For analysis of NADPH-mediated metabolism of ^125I-ODV, NADPH was used as an energy source of CYP-mediated metabolism. Adding an NADPH-generating system produced a state in which CYP was active. NADPH-mediated metabolism of ^125I-ODV was examined in a mixture consisting of an NADPH-generating system (0.5 mM β-NADP^+, 5 mM MgCl2, 5 mM G6P, and 1 U/mL G6PD), 100 mM sodium potassium phosphate buffer (pH 7.4), 50 μM EDTA disodium salt, and 1000 μg protein/20 μL pooled MLH in a final volume of 250 μL (NADPH [+]). […] The samples were incubated at 37 °C for 5, 15, 30, and 60 min with gentle shaking, ethanol was added to stop the reactions, and the samples were centrifuged at 18,000 g for 5 min. The supernatants in each sample were analyzed by HPLC. The mobile phase consisted of 70% 20 mM KH2PO4 buffer (pH 4.0) and 30% acetonitrile at a flow rate of 1.0 mL/min (n = 3).

[3] = Experimental: ^125I-ODV was prepared to a radioactive concentration of 30 MBq/mL by the addition of saline. For metabolite analysis in CYP-inhibited mice, we produced model mice with reduced CYP3A4 or CYP2D6 activity by selective inhibition using ketoconazole or paroxetine. CYP3A4-inhibited mice were injected intraperitoneally with 50 mg/kg of ketoconazole at 60 min before injection of ^125I-ODV, and CYP2D6-inhibited mice were injected intraperitoneally with 30 mg/kg of paroxetine at 60 min before injection of ^125I-ODV. Each of three mice was administered ^125I-ODV via the tail vein (3.0 MBq/100 µL/mouse). At 30 min, the three fasted mice were euthanized under isoflurane, and each gallbladder was collected. The radioactive products in bile were analyzed by TLC using methanol/acetate at a ratio of 100:1. Bile was directly spotted onto a TLC plate.
[4] = normal mice, after 5 min of administration
[5] = normal and CYP-inhibited mice, TLC of bile

## CN(C)CC(c1ccc(O)c([125I])c1)C1(O)CCCCC1 (stereo not shown) [^125I-ODV, iodine-125-labeled O-desmethylvenlafaxine]
[1]; 5 min
  Biological distribution, Blood: 1.89 %ID/g
  Biological distribution, Brain: 0.80 %ID/g
  Biological distribution, Gallbladder: 4.31 %ID/g
  Biological distribution, Heart: 5.64 %ID/g
  Biological distribution, Kidney: 22.95 %ID/g
  Biological distribution, Large intestines: 1.32 %ID/organ
  Biological distribution, Liver: 6.91 %ID/g
  Biological distribution, Lung: 27.04 %ID/g
  Biological distribution, Pancreas: 7.87 %ID/g
  Biological distribution, Small intestines: 6.85 %ID/organ
  Biological distribution, Spleen: 9.22 %ID/g
  Biological distribution, Stomach: 2.44 %ID/organ
  Biological distribution, Thyroid: 0.06 %ID/organ
  Biological distribution, Urine: 0.63 %ID/organ
[1]; 15 min
  Biological distribution, Blood: 1.31 %ID/g
  Biological distribution, Brain: 0.75 %ID/g
  Biological distribution, Gallbladder: 5.26 %ID/g
  Biological distribution, Heart: 2.71 %ID/g
  Biological distribution, Kidney: 16.37 %ID/g
  Biological distribution, Large intestines: 1.18 %ID/organ
  Biological distribution, Liver: 6.04 %ID/g
  Biological distribution, Lung: 16.75 %ID/g
  Biological distribution, Pancreas: 6.04 %ID/g
  Biological distribution, Small intestines: 7.70 %ID/organ
  Biological distribution, Spleen: 4.79 %ID/g
  Biological distribution, Stomach: 3.19 %ID/organ
  Biological distribution, Thyroid: 0.03 %ID/organ
  Biological distribution, Urine: 3.37 %ID/organ
[1]; 30 min
  Biological distribution, Blood: 1.34 %ID/g
  Biological distribution, Brain: 0.73 %ID/g
  Biological distribution, Gallbladder: 24.23 %ID/g
  Biological distribution, Heart: 2.04 %ID/g
  Biological distribution, Kidney: 14.27 %ID/g
  Biological distribution, Large intestines: 0.68 %ID/organ
  Biological distribution, Liver: 5.45 %ID/g
  Biological distribution, Lung: 13.30 %ID/g
  Biological distribution, Pancreas: 5.02 %ID/g
  Biological distribution, Small intestines: 8.47 %ID/organ
  Biological distribution, Spleen: 3.45 %ID/g
  Biological distribution, Stomach: 2.75 %ID/organ
  Biological distribution, Thyroid: 0.04 %ID/organ
  Biological distribution, Urine: 3.69 %ID/organ
[1]; 60 min
  Biological distribution, Blood: 0.74 %ID/g
  Biological distribution, Brain: 0.60 %ID/g
  Biological distribution, Gallbladder: 33.05 %ID/g
  Biological distribution, Heart: 1.00 %ID/g
  Biological distribution, Kidney: 9.42 %ID/g
  Biological distribution, Large intestines: 0.47 %ID/organ
  Biological distribution, Liver: 2.89 %ID/g
  Biological distribution, Lung: 5.01 %ID/g
  Biological distribution, Pancreas: 2.92 %ID/g
  Biological distribution, Small intestines: 11.03 %ID/organ
  Biological distribution, Spleen: 1.75 %ID/g
  Biological distribution, Stomach: 1.88 %ID/organ
  Biological distribution, Thyroid: 0.02 %ID/organ
  Biological distribution, Urine: 7.31 %ID/organ
[1]; [4]
  accumulation in the kidneys: more than 20%
  accumulation in the lungs: more than 20%
[2]
  radiochemical purity: more than 98%
CYP; end value of the decrease
  fraction of 125I-ODV: ~54%
CYP; end value of the increase
  peak of 125I-ODV metabolite: ~46%
CYP; start value of the decrease
  fraction of 125I-ODV: about 85%
CYP; start value of the increase
  peak of 125I-ODV metabolite: about 0%
CYP; NADPH [−], 37 °C, 15 min
  percentage of metabolite: 1.52%
[3]; gallbladders collected 60 min after injection
  metabolites of 125I-ODV present in bile: more than 99%
[3]; [5]
  fraction of 125I-ODV in bile: not found
  fractional ratio of the metabolite in bile: more than 99%
